Data set [1] has as its system human colorectal carcinoma HCT-116 cells. Description: Cell survival index (MTT + cell count) bioscreen, HCT-116. The settings on record: HCT-116, 48 h, human colon cancer cell line, 48 h of incubation, mean ± SEM (n = 30). Format: cell-based. Here is the method:
(§1) Cell growth inhibition activity of compounds 1, 9a–i, 10a,b, and the positive control nutlin-3a was evaluated following 48 h of incubation with increasing concentrations of the compounds (from 1.5 to 25 µM) in human cancer (A375 and HCT-116) and healthy (L6) cell lines. […] The evaluation of the “cell survival index” show a typical concentration-dependent sigmoid trend, achieving IC50 values in the low micromolar range (Figure S2).
(§2) Human epithelial melanoma A375 cells, human colorectal carcinoma HCT-116 cells, and normal rat L6 myoblast were grown in DMEM (Invitrogen, Paisley, UK) supplemented with 10% fetal bovine serum (FBS, Cambrex, Verviers, Belgium), L-glutamine (2 mM, Sigma, Milan, Italy), penicillin (100 units/mL, Sigma), and streptomycin (100 μg/mL, Sigma) and cultured in a humidified 5% carbon dioxide atmosphere at 37 °C, according to ATCC recommendations. A375 and HCT-116 were used as preclinical human cancer models in vitro, while rat L6 were used as control healthy cells.
(§3) The antiproliferative activity of 1, 9a–i, and 10a,b was investigated through the estimation of a “cell survival index”, arising from the combination of cell viability evaluation with cell counting, as previously reported. The cell survival index is calculated as the arithmetic mean between the percentage values derived from the MTT assay and the automated cell count. Cells were inoculated in 96-microwell culture plates at a density of 10^4 cells/well and allowed to grow for 24 h. The medium was then replaced with fresh medium and cells were treated for an additional 48 h with a range of concentrations (from 1.5 to 25 μM) of 1, 9a–i, and 10a,b. Using the same experimental procedure, cell cultures were also incubated with DMSO as negative controls (vehicle), as well as with cisplatin (cDDP) and nutlin-3a as positive controls for cytotoxic and antiproliferative effects, respectively. Cell viability was evaluated using the MTT assay procedure. Cell number was determined by TC20 automated cell counter (Bio-Rad, Milan, Italy), providing an accurate and reproducible total count of cells and a live/dead ratio in one step by a specific dye (trypan blue) exclusion assay. The calculation of the concentration required to inhibit the net increase in the cell number and viability by 50% (IC50) is based on plots of data (n = 6 for each experiment) and repeated five times (total n = 30). IC50 values were calculated from a dose–response curve by nonlinear regression using a curve-fitting program, GraphPad Prism 5.0, and are expressed as mean values ± SEM (n = 30) of five independent experiments.

Data set [2] in a line: Solubility assay in PBS by UV light scattering (precipitation point). The class given is physicochemical. To be noted: for solubility at 1 min: PBS (phosphate-buffered saline), aqueous buffer, kinetic from dmso stock, PBS solution pH = 7.4, 37 °C, mean ± SEM (n = 3). How it is done: The solubility of all compounds was evaluated in a PBS solution (phosphate-buffered saline; Sigma-Aldrich, Merck KGaA, Darmstadt, Germany, pH = 7.4) by means of UV spectroscopy.
For each compound, the precipitation point was quantified measuring the increasing of the UV absorption of PBS in the range of 600–800 nm after successive additions of aliquots of a DMSO solution at specific concentration. Because of the absence of bands in the selected UV region, the increase in absorption is due to light scattering caused by the formation of particulate in the PBS. UV absorption data were graphically reported vs. μL of the added DMSO solution (x-axis), and the precipitation point was identified as the intersect point of the bilinear fitted curve. The x coordinate of the intersect point corresponded to the microlitres of DMSO added to PBS (1.4 mL) when the precipitation occurred, from which the concentration of the molecule in PBS at the precipitation point is readily calculated.
The solubility of each molecule in PBS was quantified measuring the UV scattering in the range of 600–800 nm (JASCO UV-530 spectrophotometer, equipped with ETC-505 T temperature controller). DMSO solutions of 1, 9a, 9b, 9c, 9d, 9e, 9f, ±10b, and nutlin-3a were used at a final concentration of 2.6 mM, whereas those of 9g, 9h, and 9i were used at 1.0 mM. A total of 1400 µL of degassed PBS was placed in a quartz cuvette (o.l. 0.5 cm), equilibrated 5 min at 37 °C, and then titrated by 7–10 successive additions of 0.5 µL or 0.3 µL from the DMSO solution. Each titration was performed without removing the cuvette from the UV cell and, after each addition, the solution was equilibrated 1 min a 37 °C under gently stirring before the acquisition of the UV data. For each molecule, the solubility was expressed as the mean ± SEM (n = 3).

For data set [3], the system named is normal rat L6 myoblast. Description: Cell survival index (MTT + cell count) bioscreen, L6. The class given is cell-based. To be noted: healthy rat myoblast cell line, 48 h of incubation, mean ± SEM (n = 30), read-out: L6 IC50. Here is the method:
as §1, §2, §3

Data set [4] concerns human epithelial melanoma A375 cells. Description: Cell survival index (MTT + cell count) bioscreen, A375. The class given is cell-based. To be noted: for IC50: A-375, human melanoma cell line, 48 h of incubation, cell survival index, mean ± SEM (n = 30); for SI (selectivity index): SI = IC50 L6/IC50 A375. How it is done:
as §1, §2, §3

[5] abbreviates: DMSO solution 2.6 mM added to 1400 µL PBS.
Where [6] appears, read: DMSO solution 1.0 mM added to 1400 µL PBS, Abs 640 nm.

SMILES strings stand for the structures. Converted amounts (≈) assume the structure as drawn.

This is an account of results in paper PMC10223356, “Tetrasubstituted Pyrrole Derivative Mimetics of Protein–Protein Interaction Hot-Spot Residues: A Promising Class of Anticancer Agents Targeting Melanoma Cells” (Molecules, 2023).

For orientation: IC50 means the point on the concentration scale where inhibition reaches its midpoint. In general, solubility refers to the dissolved amount per volume that the medium holds. High values mean a readily soluble substance, low ones a poorly soluble substance.

With `Cc1ccc(Cn2c(C(=O)NCc3cccc(Cl)c3)cc(C(O)c3ccccc3)c2C)cc1` (racemic) [(±)10b, (±)N-(3-chlorobenzyl)-4-(hydroxy(phenyl)methyl)-5-methyl-1-(4-methylbenzyl)-1H-pyrrole-2-carboxamide], the IC50 in data set [1] was determined as 25 ± 5 µM. Further, the “Volume of DMSO solution added to PBS at the precipitation point” value (“Volume of DMSO solution added to PBS” below) in data set [2] (setting [5]) is listed as 3,6 µL. Further, the solubility at 1 min in data set [2] came to 6.7 ± 0.6 µM (≈ 3.08 µg/mL). Besides, the CC50 in data set [3] amounted to 54 ± 6 µM. Besides, in data set [4], the IC50 came to 15 ± 5 µM and the “SI (selectivity index)” value came to 3.6.

Regarding `Cc1c(C(=O)c2ccccc2)cc(C(=O)NCc2cccc(Cl)c2)n1Cc1ccc(Cl)cc1` [compound 9a, 4-Benzoyl-N-(3-chlorobenzyl)-1-(4-chlorobenzyl)-5-methyl-1H-pyrrole-2-carboxamide], the IC50 in data set [1] turned out to be 36.4 ± 8 µM. Moreover, the “Volume of DMSO solution added to PBS” value in data set [2] (setting [5]) is given as 2,14 µL. This molecule displayed a solubility at 1 min in data set [2] of 3.9 ± 0.1 µM (≈ 1.86 µg/mL). For the same molecule, the CC50 in data set [3] is 48 ± 5 µM. For the same molecule, in data set [4], the IC50 stood at 18 ± 4 µM and the “SI (selectivity index)” value was determined as 2.7.

Regarding `COc1ccc(Cn2c(C(=O)NCc3cccc(Cl)c3)cc(C(=O)c3ccccc3)c2C)cc1` [compound 9b, 4-Benzoyl-N-(3-chlorobenzyl)-1-(4-methoxybenzyl)-5-methyl-1H-pyrrole-2-carboxamide], the IC50 in data set [1] turned out to be 46 ± 18 µM; in data set [4], 24 ± 14 µM. Besides, the “Volume of DMSO solution added to PBS” value in data set [2] (setting [5]) is recorded as 1,7 µL. In addition, in data set [2], the solubility at 1 min was found to be 3.1 ± 0.2 µM (≈ 1.47 µg/mL). Further, the CC50 in data set [3] was found to be 40 ± 5 µM. In data set [4], the “SI (selectivity index)” value was 1.7.

For `Cc1ccc(Cn2c(C(=O)NCc3ccc(Cl)cc3)cc(C(=O)c3ccccc3)c2C)cc1` [compound 9d, 4-Benzoyl-N-(4-chlorobenzyl)-5-methyl-1-(4-methylbenzyl)-1H-pyrrole-2-carboxamide], the IC50 in data set [1] was found to be 35.4 ± 6 µM; in data set [4], 15 ± 5 µM. For the same molecule, the “Volume of DMSO solution added to PBS” value in data set [2] (setting [5]) is given as 1,67 µL. The solubility at 1 min in data set [2] turned out to be 3.1 ± 0.2 µM (≈ 1.42 µg/mL). Besides, the CC50 in data set [3] was 25 ± 6 µM. Besides, the “SI (selectivity index)” value in data set [4] amounted to 1.7.

With `Cc1c(C(=O)c2ccccc2)cc(C(=O)NCc2ccc(Cl)cc2)n1Cc1ccc(Cl)cc1` [compound 9e, 4-Benzoyl-N,1-bis(4-chlorobenzyl)-5-methyl-1H-pyrrole-2-carboxamide], the IC50 in data set [1] came out at 34.6 ± 6 µM. Further, the “Volume of DMSO solution added to PBS” value in data set [2] (setting [5]) is given as 1,93 µL. Besides, the solubility at 1 min in data set [2] came out at 3.5 ± 0.3 µM (≈ 1.67 µg/mL). In data set [3], the CC50 is 38 ± 2 µM. Besides, in data set [4], the IC50 is 23 ± 6 µM and the “SI (selectivity index)” value is listed as 1.6.

As for `Cc1c(C(=O)c2ccccc2)cc(C(=O)NCc2cccc(C(F)(F)F)c2)n1Cc1ccccc1` [compound 9f, 4-Benzoyl-1-benzyl-5-methyl-N-(3-(trifluoromethyl)-benzyl)-1H-pyrrole-2-carboxamide], the IC50 in data set [1] is 28.4 ± 7 µM. Moreover, in data set [2] (setting [5]), the “Volume of DMSO solution added to PBS” value is on record as 1,41 µL. Moreover, the solubility at 1 min in data set [2] turned out to be 2.6 ± 0.1 µM (≈ 1.24 µg/mL). The CC50 in data set [3] was 35 ± 7 µM. For the same molecule, in data set [4], the IC50 was 27 ± 8 µM and the “SI (selectivity index)” value was 1.3.

For `CC(=O)c1cc(C(=O)NCc2cccc(Br)c2)n(Cc2ccc(C)cc2)c1-c1ccccc1` [compound 9g, 4-acetyl-N-(3-bromobenzyl)-1-(4-methylbenzyl)-5-phenyl-1H-pyrrole-2-carboxamide], the IC50 in data set [1] was 34 ± 6 µM. Besides, the “Volume of DMSO solution added to PBS” value in data set [2] (setting [6]) was 2,1 µL. This molecule also showed a solubility at 1 min in data set [2] of 1.5 ± 0.2 µM (≈ 0.752 µg/mL). The CC50 in data set [3] came out at 71 ± 5 µM. In data set [4], the IC50 worked out at 18 ± 5 µM and the “SI (selectivity index)” value is 3.9.

Regarding `Cc1ccc(Cn2c(C(=O)NCc3cccc(Cl)c3)cc(C(=O)c3ccc(C)cc3)c2C)cc1` [compound 9h, N-(3-chlorobenzyl)-5-methyl-4-(4-methylbenzoyl)-1-(4-methylbenzyl)-1H-pyrrole-2-carboxamide], in data set [1], the IC50 came out at 56.3 ± 15 µM. In addition, in data set [2] (setting [6]), the “Volume of DMSO solution added to PBS” value is 0.84 µL. In data set [2], this molecule gave a solubility at 1 min of less than 1 µM. Moreover, in data set [3], the CC50 was found to be 42 ± 7 µM. For the same molecule, in data set [4], the IC50 came to 24 ± 6 µM and the “SI (selectivity index)” value was 1.7.

Consider `COc1ccc(C(=O)c2cc(C(=O)NCc3cccc(Cl)c3)n(Cc3ccc(C)cc3)c2C)cc1` [compound 9i, N-(3-chlorobenzyl)-4-(4-methoxybenzoyl)-5-methyl-1-(4-methylbenzyl)-1H-pyrrole-2-carboxamide], for which, in data set [1], the IC50 was more than 100 µM. The “Volume of DMSO solution added to PBS” value in data set [2] (setting [6]) was 1,0 µL. The molecule further registered a solubility at 1 min in data set [2] of less than 1 µM. For the same molecule, the CC50 in data set [3] came to 66 ± 5 µM. In data set [4], the 50% inhibitory concentration (IC50) was determined as 16 ± 6 µM and the “SI (selectivity index)” value came to 4.2.

As for `COc1ccc(C2=N[C@H](c3ccc(Cl)cc3)[C@H](c3ccc(Cl)cc3)N2C(=O)N2CCNC(=O)C2)c(OC(C)C)c1` [nutlin-3a, reference compound], the IC50 in data set [1] amounted to 12.5 ± 5 µM; in data set [4], 15 ± 3 µM. Moreover, in data set [2], the solubility at 1 min was 2.4 ± 0.2 µM (≈ 1.4 µg/mL). The CC50 in data set [3] turned out to be 18 ± 4 µM. Further, the “SI (selectivity index)” value in data set [4] is recorded as 1.2.
